# Test results from paper PMC4890124, “Antimicrobial activity, improved cell selectivity and mode of action of short PMAP-36-derived peptides against bacteria and Candida” (Scientific Reports, 2016).
# Assays:
# Experiment in all cases: microbe, parasite or virus in culture
# [1] = tested on: C. albicans CA276 (clinical isolate); type: cell-based, Candida albicans; details: Candida albicans, three independent experiments; for MIC: CLSI 2-fold microdilution, RPMI-1640, 28 °C for 48 h, visual; for MFC: lowest concentration killing at least 99.9% of initial inoculum, YPD agar, 48 h at 28 °C
# Source text: (§1) The antifungal activities were monitored in RPMI-1640 broth medium by a 2-fold microdilution assay according to the Clinical and Laboratory Standards Institute (CLSI) methods. The Candida albicans CGMCC 2.2086, Candida tropicalis CGMCC 2.1975, and Candida krusei CGMCC 2.1857 fungal strains were purchased from the China General Microbiological Culture Collection Center (CGMCC, Beijing, China). Clinically isolated Candida albicans CA2761 was provided by the 4th Affiliated Hospital of Harbin Medical University. Briefly, fungal strains were cultured on YPD agar plates (1% peptone, 0.5% yeast extract, 1% glucose and 2% agar) at 28 °C to prepare Candida suspensions with a turbidity of a 0.5 McFarland standard. A total of 50 μl inoculum cell suspension diluted in RPMI-1640 broth medium was added to an equal volume of peptide solution to achieve a final peptide concentrations ranging from 0.25 μM to 128 μM in a 96-well plate. Pure broth alone or with inoculum suspensions was used as the negative control or the positive control, respectively. The plate was incubated at 28 °C for 48 h. MIC was considered the lowest concentration at which no fungal growth was visually observed under experimental conditions. […] After 48 h incubation at 28 °C, MFC was defined as the lowest concentration of peptides that killed at least 99.9% of the initial inoculums. Experiments were performed in triplicate with three biological replicates.
# [2] = tested on: Candida albicans CGMCC 2.2086; type: cell-based; details: Candida albicans, CGMCC2, three independent experiments; for MIC: CLSI 2-fold microdilution, RPMI-1640, 28 °C for 48 h, visual; for MFC: lowest concentration killing at least 99.9% of initial inoculum, YPD agar, 48 h at 28 °C
# Source text: as §1
# [3] = tested on: Candida tropicalis CGMCC 2.1975; type: cell-based; details: Candida tropicalis, CGMCC2, three independent experiments; for MIC: CLSI 2-fold microdilution, RPMI-1640, 28 °C for 48 h, visual; for MFC: lowest concentration killing at least 99.9% of initial inoculum, YPD agar, 48 h at 28 °C
# Source text: as §1
# [4] = tested on: Candida krusei CGMCC 2.1857; type: cell-based; details: Pichia kudriavzevii, CGMCC2, three independent experiments; for MIC: CLSI 2-fold microdilution, RPMI-1640, 28 °C for 48 h, visual; for MFC: lowest concentration killing at least 99.9% of initial inoculum, YPD agar, 48 h at 28 °C
# Source text: as §1
SMILES,MIC [1],MFC [1],MIC [2],MFC [2],MIC [3],MFC [3],MIC [4],MFC [4]
"OC(Cn1cncn1)(Cn1cncn1)c1ccc(F)cc1F [Fluconazole, reference compound]",2 µM,2 µM,2 µM,2 µM,0.25 µM,1 µM,64 µM,64 µM
"C[C@@H]1[C@H](O)[C@@H](C)/C=C/C=C/C=C/C=C/C=C/C=C/C=C/[C@H](O[C@@H]2O[C@H](C)[C@@H](O)[C@H](N)[C@@H]2O)C[C@@H]2O[C@](O)(C[C@@H](O)C[C@@H](O)[C@H](O)CC[C@@H](O)C[C@@H](O)CC(=O)O[C@H]1C)C[C@H](O)[C@H]2C(=O)O [Amphotericin B, reference compound]",0.5 µM,1 µM,0.25 µM,0.25 µM,0.25 µM,1 µM,1 µM,1 µM
